Data: patent US20200171065A1, “METHOD FOR TREATING LIVER DISEASE WITH KINSENOSIDE” (HUAZHONG UNIVERSITY OF SCIENCE AND TECHNOLOGY, priority 2017, published 2020)
Where two headings read alike, the source gives them in different places.

System: FVB/N mice with serine/threonine kinase (AKT) overexpressed in the liver (NAFL-NASH-liver fibrosis)
[1] = high, medium and low dose groups

Experimental: The serine/threonine kinase (AKT) and transposase plasmids were injected into the liver of the mice by a transposition system through hydrodynamics. The serine/threonine kinase was specifically overexpressed in the liver, and the mice except the control group were modeled. One week later, nonalcoholic fatty liver (NAFL) was formed; two weeks later, steatohepatitis (NASH) was formed; and four weeks later, a primary hepatic fibrosis model was established. In the formation of NAFL-NASH-liver fibrosis, the therapeutic effect of KD was observed.

For O=C1C[C@@H](O[C@@H]2O[C@H](CO)[C@@H](O)[C@H](O)[C@H]2O)CO1 [KD], the IFN-γ (NASH, KD 10 mg/kg) was 36.71 ± 0.32^ΔΔ pg/mL, the IL-2 (NASH, KD 10 mg/kg) was 101.31 ± 9.79^##Δ pg/mL and the IL-10 (NASH, KD 10 mg/kg) was 66.84 ± 2.73 pg/mL. The IL-12 (NASH, KD 10 mg/kg) was 127.64 ± 2.71 pg/mL, the NO (NASH, KD 10 mg/kg) was 56.22 ± 5.32^ΔΔ μmol/L and the TNF-α (NASH, KD 10 mg/kg) was 4.10 ± 0.04 pg/mL. For the same compound, the IFN-γ (NASH, KD 20 mg/kg) was 33.86 ± 0.65 pg/mL, the IL-2 (NASH, KD 20 mg/kg) was 133.29 ± 4.57 pg/mL and the IL-10 (NASH, KD 20 mg/kg) was 84.12 ± 0.23^##ΔΔ pg/mL. The IL-12 (NASH, KD 20 mg/kg) was 123.05 ± 0.71 pg/mL, the NO (NASH, KD 20 mg/kg) was 51.38 ± 1.08^#ΔΔ μmol/L and the TNF-α (NASH, KD 20 mg/kg) was 3.03 ± 0.26^##ΔΔ pg/mL. The IFN-γ (NASH, KD 30 mg/kg) was 32.43 ± 0.98 pg/mL, the IL-2 (NASH, KD 30 mg/kg) was 169.13 ± 13.10^##Δ pg/mL and the IL-10 (NASH, KD 30 mg/kg) was 91.20 ± 0.56^##ΔΔ pg/mL. For the same compound, the IL-12 (NASH, KD 30 mg/kg) was 106.38 ± 1.18^##Δ pg/mL, the NO (NASH, KD 30 mg/kg) was 48.15 ± 1.86^##ΔΔ μmol/L and the TNF-α (NASH, KD 30 mg/kg) was 2.35 ± 0.10^##ΔΔ pg/mL. For the same compound, the “serum ALT and AST” value (during development of liver fibrosis) was “decreased after KD treatment”, the “expression of MMP-13 in the liver (qPCR)” value [1] was “promoted the expression of matrix metalloproteinase-13 (MMP-13)” and the “expression of α-SMA, Col I and TIMP-1 in the liver (qPCR)” value [1] was “could effectively inhibit the expression”. For the same compound, the “release of inflammatory response marker NO” value [1] was “inhibited the release of the inflammatory response marker NO”, the “secretion of IL-10 (Th2-type cells)” value [1] was “promoted the secretion of the inflammatory cytokine IL-10” and the “secretion of inflammatory cytokines IFN-γ, TNF-α and IL-2 (Th1)” value [1] was “reduced the secretion of the inflammatory cytokines IFN-γ, TNF-α and IL-2”. The “width of the inferior vena cava, left lobe thickness, right lobe obliquity and spleen thickness (ultrasound)” value (high, middle and low dose groups) was “can significantly reduce the width of the inferior vena cava, left lobe thickness, right lobe obliquity and spleen thickness”, the IFN-γ (liver fibrosis, KD 10 mg/kg) was 85.76 ± 8.25 pg/mL and the IL-2 (liver fibrosis, KD 10 mg/kg) was 101.73 ± 0.70^##ΔΔ pg/mL. For the same compound, the IL-10 (liver fibrosis, KD 10 mg/kg) was 128.28 ± 24.84 pg/mL, the IL-12 (liver fibrosis, KD 10 mg/kg) was 253.62 ± 7.20 pg/mL and the NO (liver fibrosis, KD 10 mg/kg) was 52.13 ± 1.40 µmol/L. For the same compound, the TNF-α (liver fibrosis, KD 10 mg/kg) was 13.46 ± 9.31^ΔΔ pg/mL, the IFN-γ (liver fibrosis, KD 20 mg/kg) was 57.19 ± 1.65^##ΔΔ pg/mL and the IL-2 (liver fibrosis, KD 20 mg/kg) was 104.72 ± 0.71^##ΔΔ pg/mL. For the same compound, the IL-10 (liver fibrosis, KD 20 mg/kg) was 206.66 ± 1.91^##ΔΔ pg/mL, the IL-12 (liver fibrosis, KD 20 mg/kg) was 174.77 ± 2.72 pg/mL and the NO (liver fibrosis, KD 20 mg/kg) was 54.11 ± 15.40 µmol/L. The TNF-α (liver fibrosis, KD 20 mg/kg) was 8.41 ± 0.52 pg/mL, the IFN-γ (liver fibrosis, KD 30 mg/kg) was 53.38 ± 1.65^##ΔΔ pg/mL and the IL-2 (liver fibrosis, KD 30 mg/kg) was 93.91 ± 2.05^##ΔΔ pg/mL. The IL-10 (liver fibrosis, KD 30 mg/kg) was 140.44 ± 7.64 pg/mL, the IL-12 (liver fibrosis, KD 30 mg/kg) was 242.08 ± 5.44 pg/mL and the NO (liver fibrosis, KD 30 mg/kg) was 59.06 ± 1.40 µmol/L. The TNF-α (liver fibrosis, KD 30 mg/kg) was 2.38 ± 0.57 pg/mL, the “fiber formation (Masson staining)” value (mouse, in vivo) was “had inhibitory effect on the fiber formation” and the “oxidative stress injuries (MDA, SOD)” value (mouse, in vivo) was “could reverse these oxidative stress injuries”. For the same compound, the “secretion of ALT, AST and inflammatory cytokines” value (mouse, in vivo) was “did not affect the secretion of ALT, AST and inflammatory cytokines” and the “shear wave velocity of SWE (liver)” value (mouse, in vivo) was “could significantly reduce the shear wave velocity”.
